From patent US20100298141A1, “SUBSTITUTED PYRIDINE N-OXIDE HERBICIDES” (E. I. DU PONT DE NEMOURS AND COMPANY, priority 2007, published 2010)

Columns and labels:
morningglory [1] = test: Test C pre-/postemergence test; format: in vivo, Ipomoea coccinea; settings: for Plant response rating, Morningglory: 31 g ai/ha, scale 0 to 100 (0 no effect, 100 complete control)
How it was run: (§1)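 Compounds in a non-phytotoxic solvent with surfactant applied preemergence to seeded pots and, at the same time, postemergence to plants 2–18 cm tall (1- to 4-leaf stage). Paddy tests: pots flooded to 3 cm, compound applied into the water, depth held throughout.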

cocklebur = test: Test C pre-/postemergence test; format: in vivo, Xanthium strumarium; settings: for Plant response rating, Cocklebur: 31 g ai/ha, scale 0 to 100 (0 no effect, 100 complete control)
How it was run: as §1

bermudagrass = test: Test C pre-/postemergence test; format: in vivo, Cynodon dactylon; settings: for Plant response rating, Bermudagrass: 31 g ai/ha
How it was run: as §1

corn [2] = test: Test A pre-/postemergence greenhouse test; format: in vivo, Zea mays; settings: for Plant response rating, Corn: 0 to 100 scale where 0 is no effect and 100 is complete control; for Corn plant response rating: 0 to 100 scale
How it was run: (§2)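 Visual injury ratings against untreated controls, taken roughly ten days after treatment in greenhouse. Plants were sprayed postemergence at one- to two-leaf stage (2–10 cm tall); at the same time, seeded loam/sand soil received a directed preemergence spray. Formulation: non-phytotoxic solvent mixture with surfactant.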

wheat = test: Test C pre-/postemergence test; format: in vivo, Triticum aestivum; settings: for Plant response rating, Wheat: 31 g ai/ha, scale 0 to 100 (0 no effect, 100 complete control)
How it was run: as §1

giant foxtail = test: Test C pre-/postemergence test; format: in vivo, Setaria faberii; settings: for Plant response rating, Foxtail, Giant: 31 g ai/ha, scale 0 to 100 (0 no effect, 100 complete control)
How it was run: as §1

Italian ryegrass = test: Test C pre-/postemergence test; format: in vivo, Lolium multiflorum; settings: for Plant response rating, Ryegrass, Italian: 31 g ai/ha, scale 0 to 100 (0 no effect, 100 complete control)
How it was run: as §1

redroot pigweed = test: Test A pre-/postemergence greenhouse test; format: in vivo, Amaranthus retroflexus; settings: for Plant response rating, Pigweed: 0 to 100 scale where 0 is no effect and 100 is complete control; for Pigweed plant response rating: 0 to 100 scale
How it was run: as §2

wild oat = test: Test C pre-/postemergence test; format: in vivo, Avena fatua; settings: for Plant response rating, Oat, Wild: 31 g ai/ha, scale 0 to 100 (0 no effect, 100 complete control)
How it was run: as §1

eastern black nightshade = test: Test C pre-/postemergence test; format: in vivo, Solanum ptycanthum; settings: for Plant response rating, Nightshade: 31 g ai/ha, scale 0 to 100 (0 no effect, 100 complete control)
How it was run: as §1

corn [3] = test: Test C pre-/postemergence test; format: in vivo, Zea mays; settings: for Plant response rating, Corn: 31 g ai/ha, scale 0 to 100 (0 no effect, 100 complete control)
How it was run: as §1

kochia = test: Test C pre-/postemergence test; format: in vivo, Kochia scoparia; settings: for Plant response rating, Kochia: 31 g ai/ha, scale 0 to 100 (0 no effect, 100 complete control)
How it was run: as §1

morningglory [4] = test: Test A pre-/postemergence greenhouse test; format: in vivo, Ipomoea spp.; settings: for Plant response rating, Morningglory: 0 to 100 scale where 0 is no effect and 100 is complete control; for Morningglory plant response rating: 0 to 100 scale
How it was run: as §2

johnsongrass = test: Test C pre-/postemergence test; format: in vivo, Sorghum halepense; settings: for Plant response rating, Johnsongrass: 31 g ai/ha, scale 0 to 100 (0 no effect, 100 complete control)
How it was run: as §1

rice = test: Test C flooded paddy test; format: in vivo, Oryza sativa; settings: Flood
How it was run: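 Pots were flooded to 3 cm above the soil surface at treatment, compound applied directly to the paddy water, and that depth held throughout. Plants were kept in a greenhouse for 13 to 15 days, then visually rated against untreated controls.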

[5] = system: common (oilseed) sunflower; test: Test C pre-/postemergence test; format: in vivo, Helianthus annuus; settings: for Plant response rating, Sunflower: 31 g ai/ha, scale 0 to 100 (0 no effect, 100 complete control)
How it was run: as §1

yellow nutsedge = test: Test C pre-/postemergence test; format: in vivo, Cyperus esculentus; settings: for Plant response rating, Nutsedge, Yellow: 31 g ai/ha, scale 0 to 100 (0 no effect, 100 complete control)
How it was run: as §1

[6] = 62 g ai/ha, Preemergence, scale 0 to 100
[7] = 125 g ai/ha, preemergence, scale 0 (no effect) to 100 (complete control)
[8] = preemergence, 250 g ai/ha, scale 0 (no effect) to 100 (complete control)
[9] = 62 g ai/ha, Preemergence, scale 0 to 100 (0 no effect, 100 complete control)
[10] = Preemergence, scale 0 to 100 (0 no effect, 100 complete control)
[11] = Postemergence, 500 g ai/ha, 0 is no effect, 100 is complete control
[12] = Preemergence, 125 g ai/ha, 0 no effect, 100 complete control
[13] = 62 g ai/ha, scale 0 to 100 (0 no effect, 100 complete control)
[14] = 250 g ai/ha, scale 0 to 100, 0 no effect, 100 complete control, 13 to 15 days

Cn1nc(C(F)(F)F)c(C[S+]([O-])c2cccc[n+]2[O-])c1OCC(F)F (stereo not drawn) [Compound 75]
100: Morningglory plant response rating (morningglory [1]; [6]) | Morningglory plant response rating (morningglory [1]; [7]) | Morningglory plant response rating (morningglory [1]; [8]) | Bermudagrass plant response rating (bermudagrass; [9]) | Bermudagrass plant response rating (bermudagrass; [7]) | Plant response rating, Bermudagrass (bermudagrass; [10]) | Bermudagrass plant response rating (bermudagrass; [8]) | Foxtail, Giant plant response rating (giant foxtail; [7]) | Foxtail, Giant plant response rating (giant foxtail; [8]) | Ryegrass, Italian plant response rating (Italian ryegrass; [7]) | Ryegrass, Italian plant response rating (Italian ryegrass; [8]) | Pigweed plant response rating (redroot pigweed; [11]) | Plant response rating, Pigweed (redroot pigweed; Preemergence, 500 g ai/ha) | Nightshade plant response rating (eastern black nightshade; [7]) | Nightshade plant response rating (eastern black nightshade; [8]) | Kochia plant response rating (kochia; [6]) | Kochia plant response rating (kochia; [7]) | Plant response rating, Kochia (kochia; Preemergence) | Kochia plant response rating (kochia; [8]) | Johnsongrass plant response rating (johnsongrass; [7]) | Johnsongrass plant response rating (johnsongrass; [8]) | Sunflower plant response rating [5, 7] | Sunflower plant response rating [5, 8] | Nutsedge, Yellow plant response rating (yellow nutsedge; [8])
50: Plant response rating, Corn (corn [2]; Postemergence, 125 g ai/ha) | Plant response rating, Johnsongrass (johnsongrass; Preemergence) | Sunflower plant response rating [5, 6] | Nutsedge, Yellow plant response rating (yellow nutsedge; [6])
98: Nightshade plant response rating (eastern black nightshade; [6]) | Corn plant response rating (corn [3]; [8])
10: Cocklebur plant response rating (cocklebur; [8])
90: Morningglory plant response rating (morningglory [4]; [11]) | Plant response rating, Morningglory (morningglory [4]; Preemergence, 500 g ai/ha)
30: Plant response rating, Morningglory (morningglory [1]; Preemergence) | Wheat plant response rating (wheat; [6])
40: Oat, Wild plant response rating (wild oat; [6]) | Plant response rating, Morningglory (morningglory [4]; Postemergence, 125 g ai/ha) | Morningglory plant response rating (morningglory [4]; [12])
70: Corn plant response rating (corn [2]; [11]) | Plant response rating, Corn (corn [2]; Preemergence, 500 g ai/ha) | Ryegrass, Italian plant response rating (Italian ryegrass; [6]) | Plant response rating, Pigweed (redroot pigweed; Postemergence, 125 g ai/ha) | Oat, Wild plant response rating (wild oat; [7]) | Nutsedge, Yellow plant response rating (yellow nutsedge; [7])
85: Foxtail, Giant plant response rating (giant foxtail; [6]) | Johnsongrass plant response rating (johnsongrass; [6])
80: Plant response rating, Foxtail, Giant (giant foxtail; Preemergence) | Pigweed plant response rating (redroot pigweed; [12]) | Oat, Wild plant response rating (wild oat; [8])
60: Wheat plant response rating (wheat; [7]) | Corn plant response rating (corn [3]; [6]) | Plant response rating, Corn (corn [3]; Preemergence) | Plant response rating, Rice (rice; [14])
0: Cocklebur plant response rating (cocklebur; [6]) | Cocklebur plant response rating (cocklebur; [7]) | Plant response rating, Cocklebur (cocklebur; Preemergence) | Corn plant response rating (corn [2]; [12]) | Plant response rating, Wheat (wheat; Preemergence) | Plant response rating, Ryegrass, Italian (Italian ryegrass; Preemergence) | Plant response rating, Oat, Wild (wild oat; Preemergence) | Plant response rating, Nightshade (eastern black nightshade; Preemergence) | Plant response rating, Rice (rice; [13]) | Plant response rating, Sunflower ([5]; Preemergence) | Plant response rating, Nutsedge, Yellow (yellow nutsedge; Preemergence)
95: Wheat plant response rating (wheat; [8]) | Corn plant response rating (corn [3]; [7])

C#CCOc1c(C[S+]([O-])c2cccc[n+]2[O-])c(C(F)(F)F)nn1C (stereo not drawn) [Compound 76]
70: Ryegrass, Italian plant response rating (Italian ryegrass; [7]) | Pigweed plant response rating (redroot pigweed; [12]) | Plant response rating, Kochia (kochia; Preemergence) | Plant response rating, Morningglory (morningglory [4]; Postemergence, 125 g ai/ha) | Sunflower plant response rating [5, 8]
75: Plant response rating, Foxtail, Giant (giant foxtail; Preemergence)
35: Sunflower plant response rating [5, 6]
95: Oat, Wild plant response rating (wild oat; [8]) | Johnsongrass plant response rating (johnsongrass; [6]) | Nutsedge, Yellow plant response rating (yellow nutsedge; [8])
0: Plant response rating, Morningglory (morningglory [1]; Preemergence) | Cocklebur plant response rating (cocklebur; [6]) | Cocklebur plant response rating (cocklebur; [7]) | Plant response rating, Cocklebur (cocklebur; Preemergence) | Corn plant response rating (corn [2]; [12]) | Plant response rating, Wheat (wheat; Preemergence) | Plant response rating, Ryegrass, Italian (Italian ryegrass; Preemergence) | Plant response rating, Oat, Wild (wild oat; Preemergence) | Plant response rating, Corn (corn [3]; Preemergence) | Plant response rating, Rice (rice; [13]) | Plant response rating, Sunflower ([5]; Preemergence) | Plant response rating, Nutsedge, Yellow (yellow nutsedge; Preemergence)
90: Foxtail, Giant plant response rating (giant foxtail; [6]) | Nightshade plant response rating (eastern black nightshade; [7]) | Morningglory plant response rating (morningglory [4]; [11]) | Plant response rating, Morningglory (morningglory [4]; Preemergence, 500 g ai/ha)
60: Corn plant response rating (corn [2]; [11]) | Wheat plant response rating (wheat; [6]) | Oat, Wild plant response rating (wild oat; [7])
20: Morningglory plant response rating (morningglory [1]; [6])
85: Nightshade plant response rating (eastern black nightshade; [6]) | Plant response rating, Nightshade (eastern black nightshade; Preemergence) | Plant response rating, Johnsongrass (johnsongrass; Preemergence)
50: Ryegrass, Italian plant response rating (Italian ryegrass; [6]) | Plant response rating, Pigweed (redroot pigweed; Postemergence, 125 g ai/ha) | Oat, Wild plant response rating (wild oat; [6]) | Morningglory plant response rating (morningglory [4]; [12]) | Sunflower plant response rating [5, 7] | Nutsedge, Yellow plant response rating (yellow nutsedge; [6])
10: Cocklebur plant response rating (cocklebur; [8])
98: Wheat plant response rating (wheat; [7])
80: Plant response rating, Bermudagrass (bermudagrass; [10]) | Plant response rating, Corn (corn [2]; Preemergence, 500 g ai/ha) | Pigweed plant response rating (redroot pigweed; [11]) | Corn plant response rating (corn [3]; [6]) | Nutsedge, Yellow plant response rating (yellow nutsedge; [7])
100: Morningglory plant response rating (morningglory [1]; [7]) | Morningglory plant response rating (morningglory [1]; [8]) | Bermudagrass plant response rating (bermudagrass; [9]) | Bermudagrass plant response rating (bermudagrass; [7]) | Bermudagrass plant response rating (bermudagrass; [8]) | Wheat plant response rating (wheat; [8]) | Foxtail, Giant plant response rating (giant foxtail; [7]) | Foxtail, Giant plant response rating (giant foxtail; [8]) | Ryegrass, Italian plant response rating (Italian ryegrass; [8]) | Plant response rating, Pigweed (redroot pigweed; Preemergence, 500 g ai/ha) | Nightshade plant response rating (eastern black nightshade; [8]) | Corn plant response rating (corn [3]; [7]) | Corn plant response rating (corn [3]; [8]) | Kochia plant response rating (kochia; [6]) | Kochia plant response rating (kochia; [7]) | Kochia plant response rating (kochia; [8]) | Johnsongrass plant response rating (johnsongrass; [7]) | Johnsongrass plant response rating (johnsongrass; [8])
30: Plant response rating, Rice (rice; [14])
40: Plant response rating, Corn (corn [2]; Postemergence, 125 g ai/ha)
